# Assay results published in publication PMC8748916, “Microbial enzymes induce colitis by reactivating triclosan in the mouse gastrointestinal tract” (Nature Communications, 2022).
# Several values for one entry are separate records, joined by “and”; a condition that tells them apart may be missing. Equal entries are not always repeated.
# Key:
# [1] = tested on: mammalian GUS enzyme; set-up: method as in PMID 30062115; conditions: cited from earlier work
# [2] = target: F. prausnitzii GUS (Faecalibacterium prausnitzii, UniProt C7H4D2); test: In vitro IC50 assay (TCS-G to TCS conversion, HPLC); assay type: biochemical
# Protocol: (§1) Reaction mixtures containing 10 µL GUS (10 nM final), 10 µL TCS-G (200 µM final), 5 µL inhibitor (various concentrations), and 25 µL buffer (50 mM HEPES, 50 mM NaCl, various pH) or (50 mM sodium acetate, 50 mM NaCl, various pH) were incubated for 10 min and quenched with 50 µL 25% trichloroacetic acid. Samples were centrifuged 10 min at 16,000 × g, and the supernatant was analyzed using the method described for the catalytic efficiency assay. Inhibition was calculated by the equation below:1 %inhibition=100×(1−(AUCinh−AUCmax)/(AUCmin−AUCmax)) where AUCmin is the signal of the uninhibited reaction, AUCmax is the signal of the 100% inhibited reaction, and AUCinh is the signal of the reaction at a given concentration of inhibitor. Percent inhibition values were plotted against the log of inhibitor concentration, and GraphPad Prism 8.0 was used to determine IC50 values.
# [3] = target: T1, R. hominis 3 GUS (Roseburia hominis, UniProt A0A395V874); test: as above; assay type: biochemical
# T1 sequence (A0A395V874 1-734): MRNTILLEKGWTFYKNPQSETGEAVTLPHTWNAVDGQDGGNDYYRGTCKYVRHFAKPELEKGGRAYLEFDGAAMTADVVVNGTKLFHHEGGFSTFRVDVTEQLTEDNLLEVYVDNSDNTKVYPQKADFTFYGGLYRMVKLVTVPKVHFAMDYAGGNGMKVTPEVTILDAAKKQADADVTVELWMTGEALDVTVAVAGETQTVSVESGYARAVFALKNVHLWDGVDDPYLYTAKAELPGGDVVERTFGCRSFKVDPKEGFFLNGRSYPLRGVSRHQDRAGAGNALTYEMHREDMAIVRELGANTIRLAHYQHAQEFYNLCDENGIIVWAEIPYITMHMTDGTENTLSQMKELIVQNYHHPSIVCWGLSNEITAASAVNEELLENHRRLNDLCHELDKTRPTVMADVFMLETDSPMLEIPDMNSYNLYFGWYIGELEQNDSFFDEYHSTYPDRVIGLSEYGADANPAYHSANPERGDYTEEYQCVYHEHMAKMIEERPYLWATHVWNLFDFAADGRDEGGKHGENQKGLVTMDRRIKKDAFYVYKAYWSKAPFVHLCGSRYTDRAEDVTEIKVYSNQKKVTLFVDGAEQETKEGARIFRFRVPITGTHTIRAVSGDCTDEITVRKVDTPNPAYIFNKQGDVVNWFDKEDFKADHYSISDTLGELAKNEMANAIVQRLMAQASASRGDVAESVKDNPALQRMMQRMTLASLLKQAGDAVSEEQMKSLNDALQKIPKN
# Protocol: as §1
# [4] = target: E. eligens GUS (Lachnospira eligens, UniProt C4Z6Z2); test: as above; assay type: biochemical
# Protocol: as §1
# [5] = tested on: Clostridiales sp. GUS; test: as above; assay type: biochemical; conditions: for Clostridiales sp. GUS % inhibition: Fig. 4c, triplicate
# Protocol: as §1
# [6] = target: R. gnavus 3 GUS (Mediterraneibacter gnavus, UniProt Z9UC37PQH0); test: as above; assay type: biochemical
# [7] = GUSi 0.411523 uM, Fig. 4b, triplicate
# [8] = GUSi 3.7037 uM, Fig. 4b, triplicate
# [9] = GUSi 11.1111 uM, Fig. 4b, triplicate
# [10] = GUSi 33.3333 uM, Fig. 4b, triplicate
# [11] = GUSi 100 uM, Fig. 4b, triplicate
# [12] = GUSi 3.7037 uM, Fig. 4c, triplicate
# [13] = GUSi 33.3333 uM, Fig. 4c, triplicate
# [14] = GUSi 100 uM, Fig. 4c, triplicate
# [15] = conversion of TCS-G (200 µM) to TCS, FMN-binding GUS
# [16] = GUSi 1.23457 uM, Fig. 4c, triplicate
# [17] = GUSi 11.1111 uM, Fig. 4c, triplicate
smiles,measurement,setting,value
"C1CCc2c(c(N3CCOCC3)nc3sc4c(N5CCNCC5)nnnc4c23)C1 [GUSi, UNC10201652]",effect on the activity of mammalian GUS enzyme,[1],no effect
same,F. prausnitzii GUS % inhibition,[2]; [7],-3.256% and -6.409% and 1.703%
same,F. prausnitzii GUS % inhibition,[2]; [8],31.508% and 41.6292%
same,inhibition at 3.7037 µM,[2]; [8],30.3%
same,F. prausnitzii GUS % inhibition,[2]; [9],65.4843% and 60.2667%
same,inhibition at 11.1111 µM,[2]; [9],68.7%
same,F. prausnitzii GUS % inhibition,[2]; [10],79.5271% and 77.5064%
same,inhibition at 33.3333 µM,[2]; [10],74.1%
same,F. prausnitzii GUS % inhibition,[2]; [11],90.4792% and 87.3233%
same,inhibition at 100 µM,[2]; [11],85.7%
same,IC50,"[2]; conversion of TCS-G (200 µM) to TCS, Loop 1 GUS",4.9 ± 0.8 µM
same,IC50,[3],> 100 µM
same,R. hominis 3 GUS % inhibition,[3]; [12],2.389% and -2.0752% and 4.091%
same,R. hominis 3 GUS % inhibition,[3]; [13],18.9209% and 35.4136%
same,inhibition at 33.3333 µM,[3]; [13],23.2%
same,R. hominis 3 GUS % inhibition,[3]; [14],34.5947% and 39.5508% and 57.3604%
same,IC50,[4],3.1 ± 0.1 µM
same,inhibition at 0.0457247 µM,"[4]; GUSi 0.0457247 uM, Fig. 4b, triplicate",0%
same,inhibition at 0.137174 µM,"[4]; GUSi 0.137174 uM, Fig. 4b, triplicate",0%
same,inhibition at 0.411523 µM,[4]; [7],0%
same,E. eligens GUS % inhibition,"[4]; GUSi 1.23457 uM, Fig. 4b, triplicate",2.145% and 1.672%
same,E. eligens GUS % inhibition,[4]; [8],67.2992% and 67.384%
same,inhibition at 3.7037 µM,[4]; [8],64.7%
same,E. eligens GUS % inhibition,[4]; [9],95.2204% and 97.0627%
same,inhibition at 11.1111 µM,[4]; [9],90%
same,E. eligens GUS % inhibition,[4]; [10],103.909% and 106.718%
same,inhibition at 33.3333 µM,[4]; [10],97.2%
same,E. eligens GUS % inhibition,[4]; [11],105.208% and 106.762%
same,inhibition at 100 µM,[4]; [11],97.5%
same,Clostridiales sp. GUS % inhibition,[5]; GUSi 11.1111 uM,28.4771% and 43.1829% and 36.9382%
same,Clostridiales sp. GUS % inhibition,[5]; GUSi 33.3333 uM,61.452% and 67.3548% and 67.8202%
same,Clostridiales sp. GUS % inhibition,[5]; GUSi 100 uM,79.8338% and 82.8373% and 85.2439%
same,IC50,[5]; [15],4 ± 1 µM
same,R. gnavus 3 GUS % inhibition,"[6]; GUSi 0.0457247 uM, Fig. 4c, triplicate",-1.753% and -3.75% and 4.591%
same,R. gnavus 3 GUS % inhibition,"[6]; GUSi 0.137174 uM, Fig. 4c, triplicate",0.1348% and -1.9775% and 2.5447%
same,R. gnavus 3 GUS % inhibition,[6]; [16],15.6836% and 27.3384%
same,inhibition at 1.23457 µM,[6]; [16],17.8%
same,R. gnavus 3 GUS % inhibition,[6]; [12],45.7722% and 58.3391%
same,inhibition at 3.7037 µM,[6]; [12],46.7%
same,R. gnavus 3 GUS % inhibition,[6]; [17],62.2571% and 74.9484%
same,inhibition at 11.1111 µM,[6]; [17],64.9%
same,R. gnavus 3 GUS % inhibition,[6]; [13],76.969% and 90.9388%
same,inhibition at 33.3333 µM,[6]; [13],79.3%
same,R. gnavus 3 GUS % inhibition,[6]; [14],87.2656% and 101.29%
same,inhibition at 100 µM,[6]; [14],89.5%
same,IC50,[6]; [15],3.7 ± 0.5 µM
